Assay results from DBAASP.
Values after ≈ are worked out from the molar mass of the structure shown.

Columns and labels:
Experiment in all cases: ≥ marks a high value that may be exact or a test limit, other limits are often not marked, values filed in µg/mL are converted to µM
Staphylococcus aureus = system: Staphylococcus aureus
Escherichia coli = system: Escherichia coli
[1] = system: Pseudomonas aeruginosa ATCC 27853
[2] = system: Staphylococcus aureus ATCC 29213
[3] = system: Escherichia coli ATCC 25922

Row | SMILES | MIC (Staphylococcus aureus) | MIC (Escherichia coli) | MIC [1] | MIC [2] | MIC [3]
1 | CC[C@H](C)[C@H](NC(=O)[C@H](C)NC(=O)[C@H](CO)NC(=O)[C@H](CC(C)C)NC(=O)[C@@H](N)Cc1ccccc1)C(=O)N[C@@H](C)C(=O)N[C@@H](CO)C(=O)N[C@@H](CCSC)C(=O)N[C@@H](CC(C)C)C(=O)NCC(=O)N[C@@H](CCCCN)C(=O)N[C@@H](Cc1ccccc1)C(=O)N[C@@H](CC(C)C)C(=O)O [FLSAIASMLGKFL] | 200 µM (≈ 280 µg/mL) |  |  |  | 
2 | CC[C@H](C)[C@H](NC(=O)CNC(=O)[C@H](CO)NC(=O)[C@H](CC(C)C)NC(=O)[C@@H](NC(=O)CN)[C@@H](C)CC)C(=O)N[C@@H](CC(C)C)C(=O)NCC(=O)N[C@@H](CCSC)C(=O)NCC(=O)N[C@@H](CCCCN)C(=O)N[C@@H](CCCCN)C(=O)N[C@@H](CC(C)C)C(=O)N[C@H](C(=O)N[C@H]1CSSC[C@@H](C(=O)O)NC(=O)[C@H](CC(C)C)NC(=O)CNC(=O)[C@H](CO)NC(=O)[C@H](CC(C)C)NC(=O)CNC1=O)C(C)C [GILSGILGMGKKLVCGLSGLC] | 50 µM (≈ 101 µg/mL) | 15 µM (≈ 30.3 µg/mL) |  |  | 
3 | NCC(=O)N[C@@H](CCCN=C(N)N)C(=O)N[C@@H](CCCN=C(N)N)C(=O)N1CCC[C@H]1C(=O)N[C@@H](CCCN=C(N)N)C(=O)N1CCC[C@H]1C(=O)N[C@@H](CCCN=C(N)N)C(=O)N1CCC[C@H]1C(=O)N[C@@H](CCCN=C(N)N)C(=O)N1CCC[C@H]1C(N)=O [GRRPRPRPRP] |  |  | > 160 µM | > 160 µM | > 160 µM
4 | CC(C)C[C@H](NC(=O)CNC(=O)[C@H](C)NC(=O)[C@H](CC(C)C)NC(=O)[C@H](CCCCN)NC(=O)[C@H](CCCCN)NC(=O)[C@H](C)NC(=O)[C@H](CC(C)C)NC(=O)CNC(=O)[C@H](C)NC(=O)[C@H](CC(C)C)NC(=O)[C@H](CCCCN)NC(=O)[C@H](CCCCN)NC(=O)[C@H](C)NC(=O)[C@H](CC(C)C)NC(=O)CNC(=O)[C@H](C)NC(=O)[C@H](CC(C)C)NC(=O)[C@@H](N)CCCCN)C(=O)N[C@@H](C)C(=O)N[C@@H](CCCCN)C(N)=O [KLAGLAKKLAGLAKKLAGLAK] |  |  | 62 µM (≈ 128 µg/mL) | 7.75 µM (≈ 16 µg/mL) | 3.88 µM (≈ 8 µg/mL)
5 | CC(=O)N[C@@H](CC(C)C)C(=O)N[C@@H](CCCCN)C(=O)N[C@@H](CCCCN)C(=O)N[C@@H](CC(C)C)C(=O)N[C@@H](CC(C)C)C(=O)N[C@@H](CCCCN)C(=O)N[C@@H](CC(C)C)C(=O)N[C@@H](CC(C)C)C(=O)N[C@@H](CCCCN)C(=O)N1CCC[C@H]1C(=O)N[C@@H](CC(C)C)C(=O)N[C@@H](CC(C)C)C(=O)N[C@@H](CCCCN)C(=O)N[C@@H](CC(C)C)C(N)=O [LKKLLKLLKPLLKL] |  |  |  | 2.5 µM (≈ 4.26 µg/mL) | 5 µM (≈ 8.51 µg/mL)
6 | CC(C)C[C@H](NC(=O)[C@H](CCCCN)NC(=O)[C@H](CC(C)C)NC(=O)[C@H](CC(C)C)NC(=O)[C@H](CCCCN)NC(=O)[C@H](CCCCN)NC(=O)[C@H](CO)NC(=O)[C@H](CC(C)C)NC(=O)[C@H](CCCCN)NC(=O)[C@H](CC(C)C)NC(=O)[C@H](CC(C)C)NC(=O)[C@H](CCCCN)NC(=O)[C@H](CCCCN)NC(=O)[C@@H](N)CC(C)C)C(=O)N[C@@H](C)C(=O)NCC(=O)O [LKKLLKLSKKLLKLAG] |  |  |  | 10 µM (≈ 17.9 µg/mL) | 2.5 µM (≈ 4.49 µg/mL)
7 | CC[C@H](C)[C@H](NC(=O)[C@H](CCCCN)NC(=O)[C@H](CCCN=C(N)N)NC(=O)[C@@H](N)CCC(N)=O)C(=O)N[C@@H](CCCN=C(N)N)C(=O)N[C@H](C(=O)N[C@@H](CCCN=C(N)N)C(=O)N[C@@H](CC(C)C)C(=O)N[C@@H](CO)C(=O)N[C@@H](C)C(=O)O)C(C)C [QRKIRVRLSA] |  |  | 3.26 µM (≈ 4 µg/mL) | > 52.2 µM | 1.63 µM (≈ 2 µg/mL)
8 | CC[C@H](C)[C@H](NC(=O)[C@H](CCCN=C(N)N)NC(=O)[C@H](CCCN=C(N)N)NC(=O)[C@@H](N)CCC(N)=O)C(=O)N[C@@H](CCCN=C(N)N)C(=O)N[C@H](C(=O)N[C@@H](CCCN=C(N)N)C(=O)N[C@@H](CC(C)C)C(=O)N[C@@H](CO)C(=O)N[C@@H](C)C(=O)O)C(C)C [QRRIRVRLSA] |  |  | 51 µM (≈ 64 µg/mL) | > 51 µM | 12.8 µM (≈ 16 µg/mL)
